Values joined by “and” are separate entries in the source; they are usually repeats but may differ in a detail not shown here. Identical values can stand only once. Counter-ions that a name gives are not always drawn.
Columns and labels:
Assay type in all cases: cell-based
[1] = target: 3R Shaker Kv channel (M356R/A359R) (Drosophila melanogaster, UniProt P08510, A359R/DEL6-46/M356R); assay: in vitro; conditions: for G(V) shift: mean; for pKa at 100 μM: Drosophila, functional pH dependence, read-out: Functional pKa (pH where half of the maximum G(V) shift was achieved)
Source text: (§1) Experiments were made with the Shaker H4 channel incapable of fast N-type inactivation due to a Δ6-46 deletion, referred to as the wt Shaker Kv channel. The 3R Shaker Kv channel with two additional positively charged arginines (M356R/A359R) in the extracellular end of S4, was also used.
(§2) For the Shaker channels, Bluescript II KS(+) plasmid was linearized with HindIII and synthesis of cRNA were made with the T7 mMessage mMachine kit (Ambion, Austin, Tex.). Point mutations around S4, on the Shaker Kv channel, were introduced using QuickChange Site-Directed Mutagenesis Kit (Agilent Technologies, Santa Clara, Calif.) and sequencing were used for verification.
(§3) 50 nl cRNA was injected into Xenopus laevis oocytes using a Nanoject injector (Drummond Scientific, Broomall, Pa.) and the oocytes were stored at 8° C. in a modified Barth's solution (MBS) before experiments (16° C., M-channel, 1-2 days). The MBS contained (in mM): 88 NaCl, 1 KCl, 2.4 NaHCO3, 15 HEPES, 0.33 Ca(NO3)2, 0.41 CaCl2), and 0.82 MgSO4, pH was adjusted to 7.5 by NaOH and the MBS was supplemented sodium pyruvate (2.5 mM). All animal experiments were approved by the Linkoping's local Animal Care and Use Committee.
(§4) Currents were measured 1-6 days after cRNA injection using the two-electrode voltage clamp technique (GeneClamp 500B amplifier, Axon instruments). Signals were low pass filtered at 5 kHz and digitized by a Digidata 1440A converter (Molecular Devices, Sunnyvale, Calif.). The amplifiers leak compensation was used and Clampex 10.2 software (Molecular Devices) was used to obtain data and create voltage protocols. The extracellular control solution contained (in mM): 1 KCl, 88 NaCl, 0.8 MgCl2, 0.4 CaCl2) and 15 HEPES. pH were adjusted with NaOH. Electrode pipettes were made from borosilicate glass capillaries (Harvard apparatus, Kent, UK) using a two stage electrode puller (Narishige, Tokyo, Japan) and resistance was between 0.5-2.0 MO once filled with 3 M KCl solution. In the voltage protocol for the wt and 3R Shaker channel, holding potential was set to −80 mV and steady-state currents were measured at voltages between −80 and +50 mV (wt Shaker Kv channel) or +70 mV (3R Shaker Kv channel), using 5 mV increments, 100 ms. […] Physiol. 143, 173-182 (2014). For the M-channel, holding potential was set to −100 mV, test-voltages were measured between −120 and +50 mV (10 mV increments for 2 s) and tail currents were measured at −30 mV.
(§5) Control solution was perfused to the recording chamber (0.5 ml/min) and the test solution was added manually with a syringe, in a volume large enough to replace the control solution manifold. Resin acids compounds were dissolved in DMSO (100 mM) and stored at −20° C. Just prior to experiment the compound was diluted to desired concentration in control solution. Recovery was measured after continuously perfusion of control solution, maximum 5 min. All recordings were made with the perfusion off. Experiments were carried out in room temperature (20-23° C.) and chemicals were purchased from Sigma Aldrich if not stated otherwise.
(§6) Currents were leak subtracted and steady-state currents were measured 80-86 ms after onset of the test voltages (Clampfit 10.5, Molecular Devices). K conductance, GK, was calculated using,
(§7) where IK is the steady-state current, V the absolute membrane voltage and VK the reversal potential for K ions (−80 mV), and the following Boltzmann curve was used to fit the data:
(§8) GK(V)=A/(1+exp((V1/2−V)/s)^n (2)
(§9) where A is the amplitude of the curve, V1/2 the midpoint when n=1, s the slope and n an exponent for better curve fitting, set to n=4. The voltage shift was calculated at 10% of maximal conductance in control curve.
(§10) To quantify the concentration dependence or pH dependence of the GK(V) shifts the following equation was used:
(§11) ΔVG(V)=ΔVMAX/(1+c1/2/c), (3)

[2] = target: wt Shaker Kv channel (Shaker H4, Δ6-46) (Drosophila melanogaster, UniProt P08510, DEL6-46); assay: Two-electrode voltage clamp, G(V) shift on wt Shaker Kv channel expressed in Xenopus laevis oocytes; conditions: mean
Source text: as §1, §2, §3, §4, §5, §6, §7, §8, §9, §10, §11

hKv7.2/Kv7.3 (M-channel) = target: T1, hKv7.2/Kv7.3 (M-channel) (Homo sapiens, UniProt O43525+O43526); assay: Two-electrode voltage clamp, G(V) shift on human M-channel expressed in Xenopus laevis oocytes; conditions: for G(V) shift: mean
T1 construct: expressed in transfected cells; host or cells: Xenopus laevis oocytes (cRNAs mixed 1:1)
Procedure: Experiments were also made with the human hKv7.2/Kv7.3, referred to as the M-channel. cRNAs were mixed in a 1:1 molar ratio before injection into oocytes. hKv7.2 [GenBank Acc. No. NM_004518]. hKv7.3 [GenBank Acc. No NM_004519].
as §3, §4, §5
For the M channel tail currents were measured 18 ms after onset and then plotted against the test voltage. The Boltzmann curve (Eq. 2) was used to fit data and the slope was set to shared value between control and test compound. V1/2 was used to calculate the GK(V) shift.
as §10, §11
where ΔVG(v) is the voltage shift, ΔVMAX is the amplitude of the curve, c the concentration, c1/2 the concentration at which half maximum response occur. For compounds with no pH dependence the data was fitted with a horizontal line, with the slope set to 0.

Sequence of wt Shaker Kv channel (Shaker H4, Δ6-46) (P08510 other isoform, or with tags, fused parts or gaps DEL6-46): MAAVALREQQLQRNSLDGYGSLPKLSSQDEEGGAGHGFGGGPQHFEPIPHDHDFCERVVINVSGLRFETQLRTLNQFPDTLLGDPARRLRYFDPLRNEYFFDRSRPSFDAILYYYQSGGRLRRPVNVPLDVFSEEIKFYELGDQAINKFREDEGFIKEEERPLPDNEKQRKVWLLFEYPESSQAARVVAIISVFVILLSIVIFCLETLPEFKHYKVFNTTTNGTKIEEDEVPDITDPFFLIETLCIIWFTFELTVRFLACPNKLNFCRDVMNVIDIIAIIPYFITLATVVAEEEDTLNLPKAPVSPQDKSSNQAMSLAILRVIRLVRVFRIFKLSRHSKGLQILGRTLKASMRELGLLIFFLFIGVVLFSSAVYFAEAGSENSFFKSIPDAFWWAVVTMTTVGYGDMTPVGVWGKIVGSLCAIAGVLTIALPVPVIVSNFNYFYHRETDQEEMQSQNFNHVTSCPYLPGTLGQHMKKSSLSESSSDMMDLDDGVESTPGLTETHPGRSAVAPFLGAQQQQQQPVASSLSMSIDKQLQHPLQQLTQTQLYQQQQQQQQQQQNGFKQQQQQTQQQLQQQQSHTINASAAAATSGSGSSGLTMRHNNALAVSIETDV
Sequence of 3R Shaker Kv channel (M356R/A359R) (P08510 other isoform, or with tags, fused parts or gaps DEL6-46/M356R/A359R): as the sequence (P08510 other isoform, or with tags, fused parts or gaps DEL6-46) above, with M315R, A318R counted along it

## CC(C)C1=CC2=CC[C@@H]3[C@](C)(CCC[C@@]3(C)C(=O)O)[C@H]2CC1 [AA, abietic acid, reference compound]
[1]; pH 7.4, 100 μM
  G(V) shift: −16.05 mV

## CC(C)c1ccc2c(c1)CC[C@H]1[C@](C)(C(=O)NCC(=O)O)CCC[C@]21C [Wu117, ((1R,4aS,10aR)-7-isopropyl-1,4a-dimethyl-1,2,3,4,4a,9,10,10a-octahydrophenanthrene-1-carbonyl)glycine]
[1]; pH 7.4, 100 μM
  G(V) shift: −7.27 mV
[1]; pH 10, 100 μM
  G(V) shift: −5.27 mV
[2]; pH 10, 100 μM
  G(V) shift: −0.80 mV

## CC(C)c1ccc2c(c1)CC[C@H]1[C@](C)(C(=O)N[C@@H](CC(=O)O)C(=O)O)CCC[C@]21C [Wu148, ((1R,4aS,10aR)-7-isopropyl-1,4a-dimethyl-1,2,3,4,4a,9,10,10a-octahydrophenanthrene-1-carbonyl)-L-aspartic acid]
[1]; pH 5.5, 100 μM
  G(V) shift: −13.30 mV
[1]; pH 6.5, 100 μM
  G(V) shift: −14.23 mV
[1]; pH 7.4, 100 μM
  G(V) shift: −14.47 mV
[1]; pH 9, 100 μM
  G(V) shift: −11.20 mV
[1]; pH 10, 100 μM
  G(V) shift: −9.53 mV
[2]; pH 7.4, 100 μM
  G(V) shift: −0.73 mV

## CC(C)c1ccc2c(c1)CC[C@H]1[C@](C)(C(=O)NCCCC(=O)O)CCC[C@]21C [Wu149, 4-((1R,4aS,10aR)-7-isopropyl-1,4a-dimethyl-1,2,3,4,4a,9,10,10a-octahydrophenanthrene-1-carboxamido)butanoic Acid]
[1]; pH 7.4, 100 μM
  G(V) shift: −4.80 mV
[1]; pH 7.4, 100 μM, single recording of FIG. 2C
  G(V) shift (example recording, normalized G(V) curves): −5.3 mV
[1]; pH 10, 100 μM
  G(V) shift: −5.17 mV
[2]; pH 10, 100 μM
  G(V) shift: −0.57 mV

## CC(C)c1ccc2c(c1)CC[C@H]1[C@](C)(C(=O)NCCCS(=O)(=O)O)CCC[C@]21C [Wu150, 3-((1R,4aS,10aR)-7-isopropyl-1,4a-dimethyl-1,2,3,4,4a,9,10,10a-octahydrophenanthrene-1-carboxamido)propane-1-sulfonic acid]
[1]; pH 7.4, 100 μM
  G(V) shift: −9.98 mV
[2]; pH 7.4, 100 μM
  G(V) shift: −4.18 mV

## CC(C)c1ccc2c(c1)CC[C@H]1[C@](C)(C(=O)NCCCC(=O)NCCCC(=O)O)CCC[C@]21C [Wu151, 4-(4-((1R,4aS,10aR)-7-isopropyl-1,4a-dimethyl-1,2,3,4,4a,9,10,10a-octahydrophenanthrene-1-carboxamido)butanamido)butanoic Acid]
[1]; pH 7.4, 100 μM
  G(V) shift: −2.53 mV

## CC(C)c1ccc2c(c1)CC[C@H]1[C@](C)(C(=O)NCCC(=O)O)CCC[C@]21C [Wu152, 3-((1R,4aS,10aR)-7-isopropyl-1,4a-dimethyl-1,2,3,4,4a,9,10,10a-octahydrophenanthrene-1-carboxamido)propanoic Acid]
[1]; pH 7.4, 100 μM
  G(V) shift: −6.2 mV
[1]; pH 10, 100 μM
  G(V) shift: −5.20 mV
[2]; pH 10, 100 μM
  G(V) shift: −1.17 mV

## CC(C)c1ccc2c(c1)CC[C@H]1[C@](C)(C(=O)NCCC(=O)NCCC(=O)O)CCC[C@]21C [Wu153, 3-(3-((1R,4aS,10aR)-7-isopropyl-1,4a-dimethyl-1,2,3,4,4a,9,10,10a-octahydrophenanthrene-1-carboxamido)propanamido)propanoic Acid]
[1]; pH 7.4, 100 μM
  G(V) shift: −2.54 mV

## CC(C)c1ccc2c(c1)CC[C@H]1[C@](C)(C(=O)NCCS(=O)(=O)O)CCC[C@]21C [Wu154, 2-((1R,4aS,10aR)-7-isopropyl-1,4a-dimethyl-1,2,3,4,4a,9,10,10a-octahydrophenanthrene-1-carboxamido)ethane-1-sulfonic Acid]
hKv7.2/Kv7.3 (M-channel); pH 7.4, 100 μM
  G(V) shift: −4.60 mV
[1]
  pKa at 100 μM: < 7.4
[1]; pH 7.4, 100 μM
  G(V) shift: −9.85 mV
[2]; pH 7.4, 100 μM
  G(V) shift: −2.48 mV

## CC(C)C1=CC2=CC[C@H]3[C@](C)(C(=O)NCCCC(=O)O)CCC[C@]3(C)C2CC1 (stereo partly drawn) [Wu157, 4-((1R,4aR,4bR,10aR)-7-isopropyl-1,4a-dimethyl-1,2,3,4,4a,4b,10,10a-decahydrophenanthrene-1-carboxamido)butanoic Acid]
[1]; pH 7.4, 100 μM
  G(V) shift: −7.10 mV

## CC(C)c1ccc2c(c1)CC[C@H]1[C@](C)(C(=O)NCP(=O)(O)O)CCC[C@]21C [Wu158, (((1R,4aS,10aR)-7-isopropyl-1,4a-dimethyl-1,2,3,4,4a,9,10,10a-octahydrophenanthrene-1-carboxamido)methyl)phosphonic Acid]
[1]; pH 7.4, 100 μM
  G(V) shift: −4.94 mV

## CC(C)c1ccc2c(c1)CC[C@H]1[C@](C)(COP(=O)(O)O)CCC[C@]21C [Wu162, ((1R,4aS,10aR)-7-isopropyl-1,4a-dimethyl-1,2,3,4,4a,9,10,10a-octahydrophenanthren-1-yl)methyl Dihydrogen Phosphate]
[1]; pH 6.5, 100 μM
  G(V) shift: −10.03 mV
[1]; pH 7.4, 100 μM
  G(V) shift: −11.80 mV
[1]; pH 9, 100 μM
  G(V) shift: −11.55 mV
[1]; pH 10, 100 μM
  G(V) shift: −8.93 mV
[2]; pH 7.4, 100 μM
  G(V) shift: −1.18 mV

## CC(C)c1ccc2c(c1)CCC1[C@](C)(/C=C/C(=O)O)CCC[C@]21C (stereo partly drawn) [Wu176, (E)-3-((1S,4aS)-7-isopropyl-1,4a-dimethyl-1,2,3,4,4a,9,10,10a-octahydrophenanthren-1-yl)acrylic Acid]
[1]
  pKa at 100 μM: 6.8
[1]; pH 5.5, 100 μM
  G(V) shift: 2.80 mV
[1]; pH 7.4, 100 μM
  G(V) shift: −15.16 mV
[1]; pH 10, 100 μM
  G(V) shift: −17.10 mV

## CC(C)c1ccc2c(c1)CCC1[C@](C)(CC(=O)O)CCC[C@]21C (stereo partly drawn) [Wu180, 2-((1S,4aS)-7-isopropyl-1,4a-dimethyl-1,2,3,4,4a,9,10,10a-octahydrophenanthren-1-yl)acetic acid]
[1]
  pKa at 100 μM: 7.3
[1]; pH 5.5, 100 μM
  G(V) shift: 1.575 mV
[1]; pH 7.4, 100 μM
  G(V) shift: −11.04 mV
[1]; pH 10, 100 μM
  G(V) shift: −19.18 mV
[2]; pH 10, 100 μM
  G(V) shift: −2.40 mV

## C[C@@]1(COS(=O)(=O)O)CCC[C@]2(C)c3cc(Cl)c(Cl)c(Cl)c3CC[C@@H]12 [Wu181, ((1R,4aS,10aR)-6,7,8-trichloro-1,4a-dimethyl-2,3,4,9,10,10a-hexahydrophenanthrene-1-yl)methyl hydrogen sulfate]
hKv7.2/Kv7.3 (M-channel); concentration-response of G(V) shift
  ΔVMAX (maximum shift): −42.1 mV and −42.1±5.7 mV
hKv7.2/Kv7.3 (M-channel); concentration-response of G(V) shift, read-out: c1/2 (half-maximal concentration)
  EC50: 12.4 µM
hKv7.2/Kv7.3 (M-channel); pH 7.4, 10 μM
  G(V) shift: −18.9±2.4 mV and −18.90 mV
[1]; pH 7.4
  Increase of affinity compared to DHAA (factor): 16
  Increase of affinity compared to Wu161 and Wu50 (factor): 6
  Increase of amplitude/efficacy compared to DHAA (factor): 2.0
  Increased G(V) shift at low concentrations compared to DHAA (factor): 32
[1]; pH 7.4, 3 μM
  G(V) shift: −21.3±2.9 mV
[1]; pH 7.4, 10 μM
  G(V) shift: −31.90 mV
[1]; pH 7.4, concentration-response of G(V) shift
  ΔVMAX (maximum shift): −53.6 mV and −53.6±4.0 mV
[1]; pH 7.4, concentration-response of G(V) shift, read-out: c1/2 (half-maximal concentration)
  EC50: 6.1 µM
